Laboratory results: publication PMC11984388, “A brain-accessible peptide modulates stroke inflammatory response and neurotoxicity by targeting BDNF-receptor TrkB-T1 specific interactome” (Theranostics, 2025)
Where two headings read alike, the source gives them in different places. Residues, ends and D or L forms follow the SMILES beside them. *: point of attachment. Biotin = O=C1N[C@H]2[C@H](CS[C@H]2CCCCC(=O)*)N1

Legend:
[1] = tested on: primary cortical cultures; details: 25 µM
RhoGDI = test: Western blot of total RhoGDI levels; type: cell-based, rat; details: peptide 25 µM 30 min, mean, n = 6-7 (Fig S3)
Procedure: Ce lls were lyse d in RI P A buffer (50 mM Tris-HCl pH 8.0, 150 mM NaC l, 1% sodium deoxycholate , 1% NP-40, 0.1% SDS, 1 mM DT T), supple me nted with protease and phospha tase inhibitors as above, for 30 min at 4 °C. Then, cell lysa te s were sonic ated using a Bioruptor apparatus and centrifuga ted at 4 °C for 20 min at 10,000 rpm. The protein conce ntration in lysa te s was es tablished with BC A Prote in As say Kit (Thermo Fisher) follow ed by 5 min denaturalization in SDS-sa mple buffer at 95º. Equal amounts of total lysa te s were resolved in Tris-Glycine SDS-PAGE and transferre d to a nitroc ellulos e membrane (GE Healthca re ) in 25 mM Tris HCl pH 8.3, 250 mM glycine and 10% methanol, using an electr ic curre nt of 400 mA for 70 min. After transfer, membranes were sta ine d with a Ponceau S solution to chec k for its effic acy. Then, membranes were blocked for 30 min with a 5% non-fat […]
dry milk solution in Tris Buffere d Saline-Tween (TBS-T, 20 mM Tris HCl pH 7.5, 137 mM NaC l, 0.05% Tween-20) and incubated overnight at 4°C with prima ry antibodies . Next, membranes were was hed with TBS-T and incubated with the appropria te anti-rabbit or anti-mouse peroxidase-conjugated se condary antibodies (Bethyl) for 1 h. To conclude, immunore activity was detecte d using Clar ity Wes ter n ECL Blotting Substrate (BioRad) and band intensity was quantified by dens itome tric analys is (Photos hop, Adobe). Levels of the protein of interest were normalized using those of neuron- spe cific enolas e (NSE) present in the sa m e sa mple and express ed relative to values obtained in their respec tive controls, arbitrarily given a 100% value. NSE was use d as a neuronal loading control sinc e it is not af fe cted by NM DA treatment. Exceptionally, levels of TrkB -T1 were normalized to those of ß- actin in the comparison of prima ry mixed cultures and those of as trocytes . Multiple independent experiments were car r ied out and quantitated as detailed in the figure legends .
Cell transfection and gene reporter ass ays
Plasmids contained minimal CREB or MEF2 response elements upstream firefly luciferase reporter gene (respectively, pCRE or pMEF2; see details in Supplementary Table 1). Primary cultures, without the AraC treatment, were transfected at 11 DIVs with 0.4 µg of plasmids using Lipofectamine 2000. […] Protein extracts were obtained using Passive Lysis Buffer (Promega, Cat# E1941) and luciferase activity was detected by a luminometer (GloMax 96 microplate luminometer, Promega), using REAP buffer (25 mM glycylglycine, 15 mM SO4Mg, 4 mM EGTA, 15 mM potassium phosphate pH 7.8, 3.3 mM ATP, 1 mM DTT, 75 µM luciferin). […]

[2] = tested on: NeuN+ neurons and GFAP+ astrocytes of mixed cortical cultures; test: Peptide visualization in primary cultures (Fluorescein Avidin D); type: cell-based, rat; details: peptide 25 µM, 30 min; Fluorescein Avidin D with NeuN and GFAP double staining (Fig 1C)
[3] = then BDNF 100 ng/ml 30 min, relative to basal Bio-TMyc (100%)

SMILES	Relative cell viability (%) ([1]; 4 h)	Relative cell viability (%) ([1]; 6 h)	Relative cell viability (%) ([1]; 24 h)	RhoGDI total levels (RhoGDI; basal, relative to basal conditions with Bio-TMyc (100%)) [%]	RhoGDI total levels (RhoGDI; [3]) [%]	Peptide entry into neurons and astrocytes [2]	RhoGDI total levels (RhoGDI; then NMDA 30 min, relative to basal Bio-TMyc (100%)) [%]
CC[C@H](C)[C@H](NC(=O)[C@H](CC(C)C)NC(=O)[C@H](CCCCN)NC(=O)[C@H](CCC(N)=O)NC(=O)[C@H](CCC(=O)O)NC(=O)[C@H](CCC(=O)O)NC(=O)[C@H](C)NC(=O)[C@H](CCCNC(=N)N)NC(=O)[C@H](CCCNC(=N)N)NC(=O)[C@H](CCCNC(=N)N)NC(=O)[C@H](CCC(N)=O)NC(=O)[C@H](CCCNC(=N)N)NC(=O)[C@H](CCCNC(=N)N)NC(=O)[C@H](CCCCN)NC(=O)[C@H](CCCCN)NC(=O)[C@H](CCCNC(=N)N)NC(=O)CNC(=O)[C@H](Cc1ccc(O)cc1)NC(=O)CCCC[C@@H]1SC[C@@H]2NC(=O)N[C@@H]21)C(=O)N[C@@H](CO)C(=O)N[C@@H](CCC(=O)O)C(=O)N[C@@H](CCC(=O)O)C(=O)N[C@@H](CC(=O)O)C(=O)N[C@@H](CC(C)C)C(=O)N[C@@H](CC(C)C)C(=O)N[C@@H](CCCNC(=N)N)C(N)=O [Bio-TMyc, reference compound] (Biotin-YGRKKRRQRRRAEEQKLISEEDLLR-NH2)	100	97	97	100	92	found inside both NeuN+ (arrowheads) and GFAP+ (asterisks) cells	
CC[C@H](C)[C@H](NC(=O)[C@H](CCCCN)NC(=O)[C@H](Cc1c[nH]cn1)NC(=O)[C@H](Cc1ccccc1)NC(=O)[C@H](CC(C)C)NC(=O)[C@@H](NC(=O)[C@H](Cc1ccccc1)NC(=O)[C@H](CCCNC(=N)N)NC(=O)[C@H](CCCNC(=N)N)NC(=O)[C@H](CCCNC(=N)N)NC(=O)[C@H](CCC(N)=O)NC(=O)[C@H](CCCNC(=N)N)NC(=O)[C@H](CCCNC(=N)N)NC(=O)[C@H](CCCCN)NC(=O)[C@H](CCCCN)NC(=O)[C@H](CCCNC(=N)N)NC(=O)CNC(=O)[C@H](Cc1ccc(O)cc1)NC(=O)CCCC[C@@H]1SC[C@@H]2NC(=O)N[C@@H]21)C(C)C)C(=O)N1CCC[C@H]1C(=O)N[C@@H](CC(C)C)C(=O)N[C@@H](CC(=O)O)C(=O)NCC(N)=O [Bio-sTT1Ct] (Biotin-YGRKKRRQRRRFVLFHKIPLDG-NH2)		99	103		93	found inside both NeuN+ (arrowheads) and GFAP+ (asterisks) cells	91
